Test systems include KM12; SK-MEL-5; OVCAR-8; NCI-H226; U-251; DLD-1; NCI-H23; UO-31; HCC 2998; HCT-116; KM-20L2; CCRF-CEM; DMS-114; SNB-75; SF-295; UACC-62; UACC-257; EKVX; HCT-15; K562.
Test in all cases: NCI tumour cell line growth inhibition, 48 h

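These data come from cells grown in 96-well plates and exposed to compound for 48 hours at five concentrations. Here, GI50 denotes the concentration required for 50% inhibition of growth.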 The source made the active and inactive calls. Cut-off read from the data, not from the text of the source: active = GI50 up to about 1.1 µM and inactive = higher.

Here are results for three molecules from ChEMBL document CHEMBL1201862, “PubChem BioAssay data set” (2004).

For the molecule `CCC(C)C1NC(=O)CNC(=O)C2Cc3c([nH]c4cc(O)ccc34)[S+]([O-])CC(NC(=O)CNC1=O)C(=O)NC(CC(=O)O)C(=O)N1CC(O)CC1C(=O)NC(C(C)C(O)CO)C(=O)N2` (stereo not given), the GI50 with KM12 was 6.46 µM (inactive); in the test with SK-MEL-5, 2.43 µM (inactive); with OVCAR-8, 3.7 µM (inactive); in the test with NCI-H226, 1.6 µM (inactive); with U-251, 3.83 µM (inactive); in the test on DLD-1, 12.4 µM (inactive). The GI50 was 1.83 µM (inactive) in the test with NCI-H23; 1.55 µM (inactive) in the test with UO-31; 0.653 µM (active) with HCC 2998; 6.37 µM (inactive) with HCT-116; 31.6 µM (inactive) in the test with KM-20L2; 6.24 µM (inactive) in the test with CCRF-CEM. Also, the GI50 in the test on DMS-114 is 0.759 µM (active); in the test on SNB-75, 0.918 µM (active); in the test on SF-295 it was 1.51 µM (inactive); in the test on UACC-62, 2.35 µM (inactive); in the test on UACC-257, 2.44 µM (inactive); in the test on EKVX, 1.98 µM (inactive). Further, the values for the GI50 in the test on HCT-15 and in the test on K562 were 10.4 µM and 3.93 µM (inactive), respectively.
Regarding `CCOC(=O)C(C#N)(Cc1c[nH]c2ccccc12)NC(C)=O` (stereo not given), the GI50 in the test with KM12, in the test on SK-MEL-5, with OVCAR-8, with NCI-H226, in the test with U-251 and in the test with DLD-1 was > 100 µM (inactive) throughout. The GI50 with NCI-H23, with UO-31, in the test with HCC 2998, in the test on HCT-116, with KM-20L2 and with CCRF-CEM was > 100 µM (inactive) each time. The GI50 in the test on DMS-114, in the test with SNB-75, with SF-295, with UACC-62, in the test on UACC-257 and in the test on EKVX was > 100 µM (inactive) in each case. The GI50 in the test on HCT-15 is above 100 µM; with K562, > 100 µM (inactive).
For `CN(C)CCNC(=O)c1cccc2[nH]c(-c3ccccn3)nc12`, the GI50 with KM12 was 41.6 µM (inactive); in the test on SK-MEL-5, 21.7 µM (inactive); in the test with OVCAR-8, 27.9 µM (inactive); in the test on NCI-H226 it was 18.5 µM (inactive); in the test on U-251, 38.8 µM (inactive); with DLD-1 it was 33.7 µM (inactive). Further, the GI50 was 43.7 µM (inactive) in the test with NCI-H23; 16.8 µM (inactive) in the test on UO-31; 49 µM (inactive) in the test with HCC 2998; 19.4 µM (inactive) in the test with HCT-116; 25.6 µM (inactive) with KM-20L2; 23.5 µM (inactive) in the test on CCRF-CEM. For the same molecule, the GI50 is 27 µM (inactive) with DMS-114; 21.2 µM (inactive) with SNB-75; 31 µM (inactive) in the test with SF-295; 20.2 µM (inactive) in the test with UACC-62; 28.6 µM (inactive) in the test with UACC-257; 41.4 µM (inactive) with EKVX. Also, the GI50 was 37.2 µM in the test with HCT-15 and > 55.6 µM (inactive) in the test with K562.
